Measured values reported in the supplement of paper PMC10307832.

Experiments:
Assay in all cases: relative viability (nuclei count vs DMSO), 5 days (fraction); higher = more cells survive
[1] = compound: CC1=CC(=CC=C1)NC2=NC(=CS2)C3=CC=NC=C3 + CC1(C)CCC(c2ccc(Cl)cc2)=C(CN2CCN(c3ccc(C(=O)NS(=O)(=O)c4ccc(N[C@H](CCN5CCOCC5)CSc5ccccc5)c(S(=O)(=O)C(F)(F)F)c4)cc3)CC2)C1 [Navitoclax] (partner 0.5 µM)
Summary of the method: (§1)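 Relative viability is defined as nuclei in treated wells over nuclei in vehicle wells. Duplicate plates were run and medians reported. Lung cancer cell lines in 1536-well plates were dosed by pin tool one day after seeding, with one drug or with a fixed anchor-drug dose plus five library-drug doses (not always all listed) in √10 steps, and nuclei were counted after 5 days.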

Masitinib = compound: Cc1ccc(NC(=O)c2ccc(CN3CCN(C)CC3)cc2)cc1Nc1nc(-c2cccnc2)cs1 [Masitinib]
Summary of the method: (§2)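 In 1536-well plates, lung cancer cell lines rested overnight at 37 °C before five library-drug doses (not always all listed), √10 apart, were pinned onto vehicle-anchored plates. Nuclei were counted with MetaXpress from 4× Hoechst images taken after 5 days without medium change. Viability compares treated-well with vehicle-well nuclei as a median over plates, and plates needed control CV below 25% plus at least one doubling to pass.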

[2] = compound: CC1=CC(=CC=C1)NC2=NC(=CS2)C3=CC=NC=C3
Summary of the method: as §2

[3] = compound: CC1=CC(=CC=C1)NC2=NC(=CS2)C3=CC=NC=C3 + COc1cc2c(Oc3ccc(NC(=O)C4(C(=O)Nc5ccc(F)cc5)CC4)cc3F)ccnc2cc1OCCCN1CCOCC1 [Foretinib] (partner 0.25 µM)
Summary of the method: as §1

Cell Line | relative viability ([1]; first compound 0.08 µM) | relative viability ([1]; first compound 0.253 µM) | relative viability ([1]; first compound 0.8 µM) | relative viability ([1]; first compound 2.53 µM) | relative viability ([1]; first compound 8 µM) | relative viability (Masitinib; 0.01 µM) | relative viability (Masitinib; 0.03162 µM) | relative viability (Masitinib; 0.1 µM) | relative viability (Masitinib; 0.3162 µM) | relative viability (Masitinib; 1 µM) | relative viability ([2]; 0.08 µM) | relative viability ([2]; 0.253 µM) | relative viability ([2]; 0.8 µM) | relative viability ([2]; 2.53 µM) | relative viability ([2]; 8 µM) | relative viability ([3]; first compound 0.08 µM) | relative viability ([3]; first compound 0.253 µM) | relative viability ([3]; first compound 0.8 µM) | relative viability ([3]; first compound 2.53 µM) | relative viability ([3]; first compound 8 µM)
HCC-44 | 0.759 | 0.728 | 0.709 | 0.749 | 0.813 | 0.816 | 1.01 | 0.978 | 0.871 | 0.961 | 0.862 | 0.795 | 0.843 | 0.797 | 0.859 |  |  |  |  | 
HCC-827 | 0.989 | 0.937 | 0.956 | 1.02 | 0.935 | 0.868 | 1.03 | 0.888 | 0.959 | 1.01 | 0.963 | 0.982 | 0.951 | 1 | 0.7 | 1.02 | 1 | 0.997 | 1.02 | 0.958
NCI-H1623 |  |  |  |  |  | 0.982 | 0.883 | 0.894 | 0.889 | 0.905 | 0.948 | 0.886 | 0.894 | 0.81 | 0.84 | 0.836 | 0.729 | 0.776 | 0.699 | 0.824
NCI-H2405 | 0.732 | 0.802 | 0.655 | 0.883 | 0.673 | 0.859 | 0.953 | 0.907 | 0.973 | 0.932 | 0.851 | 0.918 | 0.85 | 0.915 | 0.901 | 0.914 | 0.942 | 0.786 | 0.99 | 1
PC-3 [JPC-3] | 0.791 | 0.671 | 0.719 | 0.705 | 0.681 | 0.95 | 0.951 | 1.04 | 1.04 | 1.02 | 0.941 | 0.936 | 0.927 | 0.868 | 0.91 | 0.975 | 0.928 | 0.911 | 0.918 | 0.824
NCI-H1666 | 0.82 | 0.818 | 0.535 | 0.578 | 0.417 | 0.779 | 0.944 | 0.939 | 0.846 | 0.961 | 0.866 | 0.83 | 0.818 | 0.705 | 0.688 | 0.929 | 0.905 | 0.81 | 0.767 | 0.642
HARA | 1.11 | 1.16 | 1.12 | 1.12 | 1.08 | 0.844 | 0.874 | 0.772 | 0.742 | 0.909 | 0.741 | 0.975 | 0.815 | 0.685 | 0.735 | 0.522 | 0.952 | 0.848 | 0.769 | 0.821
NCI-H1563 |  |  |  |  |  | 0.9 | 0.975 | 0.983 | 0.931 | 0.937 | 0.917 | 1.04 | 0.954 | 0.983 | 0.838 | 0.772 | 0.962 | 0.974 | 0.912 | 0.765
ABC-1 |  |  |  |  |  | 0.857 | 0.902 | 1.08 | 0.853 | 0.93 | 0.795 | 0.786 | 1.08 | 0.786 | 0.41 | 1.08 | 1.14 | 1.18 | 0.884 | 1.03
SW 900 |  |  |  |  |  | 0.854 | 0.881 | 0.778 | 0.629 | 0.7 | 0.708 | 0.774 | 0.808 | 0.487 | 0.514 | 1.05 | 0.89 | 0.797 | 0.756 | 0.851
NCI-H1648 |  |  |  |  |  | 0.907 | 0.599 | 1.01 | 0.776 | 0.896 | 0.659 | 0.814 | 0.797 | 0.87 | 0.758 |  |  |  |  | 
LCLC-103H |  |  |  |  |  | 0.741 | 1.01 | 0.757 | 0.816 | 0.899 | 0.896 | 0.886 | 0.913 | 0.968 | 0.712 | 0.663 | 0.695 | 0.725 | 0.76 | 0.608
NCI-H2342 |  |  |  |  |  | 1.03 | 0.866 | 1.07 | 0.889 | 0.843 | 0.96 | 0.929 | 0.95 | 0.93 | 0.881 | 0.889 | 1.03 | 0.949 | 1.08 | 1.14
NCI-H522 |  |  |  |  |  | 1.06 | 0.815 | 0.866 | 1.07 | 0.974 | 0.894 | 0.886 | 0.931 | 0.925 | 1.15 |  |  |  |  | 
NCI-H650 |  |  |  |  |  | 0.998 | 0.963 | 1.09 | 1.04 | 0.899 | 0.805 | 0.881 | 1.01 | 0.752 | 1.15 | 0.955 | 0.98 | 1.08 | 1.02 | 1.02
NCI-H358 |  |  |  |  |  | 0.963 | 0.967 | 0.961 | 0.892 | 0.893 | 0.997 | 0.899 | 0.868 | 1.01 | 0.966 | 0.699 | 0.797 | 0.671 | 0.934 | 0.566
NCI-H661 |  |  |  |  |  | 0.9 | 0.977 | 0.986 | 0.967 | 0.947 | 0.907 | 0.944 | 0.913 | 0.914 | 0.99 | 0.904 | 1.07 | 0.973 | 0.999 | 0.863
NCI-H1792 | 0.513 | 0.469 | 0.537 | 0.515 | 0.657 | 0.76 | 0.76 | 1.04 | 0.814 | 0.735 | 0.746 | 0.698 | 0.793 | 0.653 | 0.753 |  |  |  |  | 
